Source: US20240158348A1, “HERBICIDAL CYCLIC AMIDES N-SUBSTITUTED WITH A HALOALKYLSULFONYLANILIDE GROUP” (FMC Corporation, priority 2021, published 2024)

Key:
Assay type in all cases: in vivo
[1] = test system: blackgrass (Alopecurus myosuroides); experiment: Test C preemergence, blackgrass; settings: 0 is no effect, 100 is complete control
From the text: (§1) Seeds of plant species selected from blackgrass (Alopecurus myosuroides), corn (Zea mays), foxtail, giant (giant foxtail, Setaria faberi), goosegrass (Eleusine indica), kochia (Bassia scoparia), oat, wild (wild oat, Avena fatua), pigweed, palmer (palmer amaranth, Amaranthus palmeri), ragweed (common ragweed, Ambrosia artemisiifolia), ryegrass, Italian (Italian ryegrass, Lolium multiflorum), soybean (Glycine max) and wheat (Triticum aestivum) were planted into a blend of loam soil and sand and treated preemergence with a directed soil spray using test chemicals formulated in a non-phytotoxic solvent mixture which included a surfactant.
(§2) At the same time, plants selected from these crop and weed species and also galium (catchweed bedstraw, Galium aparine) and horseweed (Erigeron canadensis) were planted in pots containing the same blend of loam soil and sand and treated with postemergence applications of test chemicals formulated in the same manner. Plants ranged in height from 2 to 10 cm and were in the one- to two-leaf stage for the postemergence treatment. Treated plants and untreated controls were maintained in a greenhouse for 10 or 12 days, after which time all treated plants were compared to untreated controls and visually evaluated for injury. Plant response ratings, summarized in Table A, are based on a 0 to 100 scale where 0 is no effect and 100 is complete control. A dash (-) response means no test result.

[2] = test system: corn (Zea mays); experiment: Test C preemergence, corn; settings: 0 is no effect, 100 is complete control
From the text: as §1, §2

[3] = test system: foxtail, giant (giant foxtail, Setaria faberi); experiment: Test C preemergence, giant foxtail; settings: 0 is no effect, 100 is complete control
From the text: as §1, §2

[4] = test system: goosegrass (Eleusine indica); experiment: Test C preemergence, goosegrass; settings: 0 is no effect, 100 is complete control
From the text: as §1, §2

[5] = test system: kochia (Bassia scoparia); experiment: Test C preemergence, kochia; settings: 0 is no effect, 100 is complete control
From the text: as §1, §2

[6] = test system: oat, wild (wild oat, Avena fatua); experiment: Test C preemergence, wild oat; settings: 0 is no effect, 100 is complete control
From the text: as §1, §2

[7] = test system: pigweed, palmer (palmer amaranth, Amaranthus palmeri); experiment: Test C preemergence, palmer amaranth; settings: 0 is no effect, 100 is complete control
From the text: as §1, §2

[8] = test system: ragweed (common ragweed, Ambrosia artemisiifolia); experiment: Test C preemergence, ragweed; settings: 0 is no effect, 100 is complete control
From the text: as §1, §2

[9] = test system: ryegrass, Italian (Italian ryegrass, Lolium multiflorum); experiment: Test C preemergence, Italian ryegrass; settings: 0 is no effect, 100 is complete control
From the text: as §1, §2

[10] = test system: soybean (Glycine max); experiment: Test C preemergence, soybean; settings: 0 is no effect, 100 is complete control
From the text: as §1, §2

[11] = test system: wheat (Triticum aestivum); experiment: Test C preemergence, wheat; settings: 0 is no effect, 100 is complete control
From the text: as §1, §2

[12] = test system: blackgrass (Alopecurus myosuroides); experiment: Test C postemergence, blackgrass; settings: visual injury, 0 to 100 scale (0 no effect, 100 complete control)
From the text: as §1, §2

[13] = test system: corn (Zea mays); experiment: Test C postemergence, corn; settings: visual injury, 0 to 100 scale (0 no effect, 100 complete control)
From the text: as §1, §2

[14] = test system: foxtail, giant (giant foxtail, Setaria faberi); experiment: Test C postemergence, giant foxtail; settings: visual injury, 0 to 100 scale (0 no effect, 100 complete control)
From the text: as §1, §2

[15] = test system: goosegrass (Eleusine indica); experiment: Test C postemergence, goosegrass; settings: visual injury, 0 to 100 scale (0 no effect, 100 complete control)
From the text: as §1, §2

[16] = test system: kochia (Bassia scoparia); experiment: Test C postemergence, kochia; settings: visual injury, 0 to 100 scale (0 no effect, 100 complete control)
From the text: as §1, §2

[17] = test system: oat, wild (wild oat, Avena fatua); experiment: Test C postemergence, wild oat; settings: visual injury, 0 to 100 scale (0 no effect, 100 complete control)
From the text: as §1, §2

[18] = test system: pigweed, palmer (palmer amaranth, Amaranthus palmeri); experiment: Test C postemergence, palmer amaranth; settings: visual injury, 0 to 100 scale (0 no effect, 100 complete control)
From the text: as §1, §2

[19] = test system: ragweed (common ragweed, Ambrosia artemisiifolia); experiment: Test C postemergence, ragweed; settings: visual injury, 0 to 100 scale (0 no effect, 100 complete control)
From the text: as §1, §2

[20] = test system: ryegrass, Italian (Italian ryegrass, Lolium multiflorum); experiment: Test C postemergence, Italian ryegrass; settings: visual injury, 0 to 100 scale (0 no effect, 100 complete control)
From the text: as §1, §2

[21] = test system: soybean (Glycine max); experiment: Test C postemergence, soybean; settings: visual injury, 0 to 100 scale (0 no effect, 100 complete control)
From the text: as §1, §2

[22] = test system: wheat (Triticum aestivum); experiment: Test C postemergence, wheat; settings: visual injury, 0 to 100 scale (0 no effect, 100 complete control)
From the text: as §1, §2

[23] = test system: galium (catchweed bedstraw, Galium aparine); experiment: Test C postemergence, galium; settings: visual injury, 0 to 100 scale (0 no effect, 100 complete control)
From the text: as §1, §2

[24] = test system: horseweed (Erigeron canadensis); experiment: Test C postemergence, horseweed; settings: visual injury, 0 to 100 scale (0 no effect, 100 complete control)
From the text: as §1, §2

[25] = test system: barnyardgrass (Echinochloa crusgalli); experiment: Test D flooded paddy test, barnyardgrass; parameters: key: 0 = no effect, 100 = complete control; settings: 250 g ai/ha, Flood; applied to paddy water at 2-leaf stage; visual rating after 13 days; scale 0 (no effect) to 100 (complete control)
Procedure: (§3) Plant species in the flooded paddy test selected from barnyardgrass (Echinochloa crusgalli), ducksalad (Heteranthera limosa), rice (Oryza sativa), and sedge, umbrella (small-flower umbrella sedge, Cyperus difformis) were grown to the 2-leaf stage for testing. At time of treatment, test pots were flooded to 3 cm above the soil surface, treated by application of test compounds directly to the paddy water, and then maintained at that water depth for the duration of the test. Treated plants and controls were maintained in a greenhouse for 13 days, after which time all species were compared to controls and visually evaluated. Plant response ratings, summarized in Table B, are based on a scale of 0 to 100 where 0 is no effect and 100 is complete control. A dash (-) response means no test result.

[26] = test system: ducksalad (Heteranthera limosa); experiment: Test D flooded paddy test, ducksalad; parameters: key: 0 = no effect, 100 = complete control; settings: 250 g ai/ha, Flood; applied to paddy water at 2-leaf stage; visual rating after 13 days; scale 0 (no effect) to 100 (complete control)
Procedure: as §3

[27] = test system: rice (Oryza sativa); experiment: Test D flooded paddy test, rice; parameters: key: 0 = no effect, 100 = complete control; settings: 250 g ai/ha, Flood; applied to paddy water at 2-leaf stage; visual rating after 13 days; scale 0 (no effect) to 100 (complete control)
Procedure: as §3

[28] = test system: sedge, umbrella (small-flower umbrella sedge, Cyperus difformis); experiment: Test D flooded paddy test, umbrella sedge; parameters: key: 0 = no effect, 100 = complete control; settings: 250 g ai/ha, Flood; applied to paddy water at 2-leaf stage; visual rating after 13 days; scale 0 (no effect) to 100 (complete control)
Procedure: as §3

Cc1cc(C)c(N2CCC(OCc3ccccc3)C2=O)cc1NS(=O)(=O)C(F)(F)F (stereo not shown) [Compound 61]
Plant response rating (0 to 100 scale), Blackgrass ([1]; 31 g ai/ha Preemergence): 60 | Plant response rating (0 to 100 scale), Blackgrass ([1]; 125 g ai/ha Preemergence): 90 | Plant response rating (0 to 100 scale), Corn ([2]; 31 g ai/ha Preemergence): 20 | Plant response rating (0 to 100 scale), Corn ([2]; 125 g ai/ha Preemergence): 100 | Plant response rating (0 to 100 scale), Foxtail, Giant ([3]; 31 g ai/ha Preemergence): 100 | Plant response rating (0 to 100 scale), Foxtail, Giant ([3]; 125 g ai/ha Preemergence): 100 | Plant response rating (0 to 100 scale), Goosegrass ([4]; 31 g ai/ha Preemergence): 100 | Plant response rating (0 to 100 scale), Goosegrass ([4]; 125 g ai/ha Preemergence): 100 | Plant response rating (0 to 100 scale), Kochia ([5]; 31 g ai/ha Preemergence): 90 | Plant response rating (0 to 100 scale), Kochia ([5]; 125 g ai/ha Preemergence): 100 | Plant response rating (0 to 100 scale), Oat, Wild ([6]; 31 g ai/ha Preemergence): 50 | Plant response rating (0 to 100 scale), Oat, Wild ([6]; 125 g ai/ha Preemergence): 90 | Plant response rating (0 to 100 scale), Pigweed, Palmer ([7]; 31 g ai/ha Preemergence): 100 | Plant response rating (0 to 100 scale), Pigweed, Palmer ([7]; 125 g ai/ha Preemergence): 100 | Plant response rating (0 to 100 scale), Ragweed ([8]; 31 g ai/ha Preemergence): 0 | Plant response rating (0 to 100 scale), Ragweed ([8]; 125 g ai/ha Preemergence): 90 | Plant response rating (0 to 100 scale), Ryegrass, Italian ([9]; 31 g ai/ha Preemergence): 60 | Plant response rating (0 to 100 scale), Ryegrass, Italian ([9]; 125 g ai/ha Preemergence): 90 | Plant response rating (0 to 100 scale), Soybean ([10]; 31 g ai/ha Preemergence): 40 | Plant response rating (0 to 100 scale), Soybean ([10]; 125 g ai/ha Preemergence): 90 | Plant response rating (0 to 100 scale), Wheat ([11]; 31 g ai/ha Preemergence): 30 | Plant response rating (0 to 100 scale), Wheat ([11]; 125 g ai/ha Preemergence): 100 | Blackgrass plant response rating ([12]; 31 g ai/ha Postemergence): 30 | Blackgrass plant response rating ([12]; 125 g ai/ha Postemergence): 70 | Corn plant response rating ([13]; 31 g ai/ha Postemergence): 10 | Corn plant response rating ([13]; 125 g ai/ha Postemergence): 60 | Foxtail, Giant plant response rating ([14]; 31 g ai/ha Postemergence): 20 | Foxtail, Giant plant response rating ([14]; 125 g ai/ha Postemergence): 50 | Goosegrass plant response rating ([15]; 31 g ai/ha Postemergence): 40 | Goosegrass plant response rating ([15]; 125 g ai/ha Postemergence): 90 | Kochia plant response rating ([16]; 31 g ai/ha Postemergence): 60 | Kochia plant response rating ([16]; 125 g ai/ha Postemergence): 90 | Oat, Wild plant response rating ([17]; 31 g ai/ha Postemergence): 20 | Oat, Wild plant response rating ([17]; 125 g ai/ha Postemergence): 80 | Pigweed, Palmer plant response rating ([18]; 31 g ai/ha Postemergence): 50 | Pigweed, Palmer plant response rating ([18]; 125 g ai/ha Postemergence): 80 | Ragweed plant response rating ([19]; 31 g ai/ha Postemergence): 50 | Ragweed plant response rating ([19]; 125 g ai/ha Postemergence): 80 | Ryegrass, Italian plant response rating ([20]; 31 g ai/ha Postemergence): 0 | Ryegrass, Italian plant response rating ([20]; 125 g ai/ha Postemergence): 60 | Soybean plant response rating ([21]; 31 g ai/ha Postemergence): 60 | Soybean plant response rating ([21]; 125 g ai/ha Postemergence): 90 | Wheat plant response rating ([22]; 31 g ai/ha Postemergence): 70 | Wheat plant response rating ([22]; 125 g ai/ha Postemergence): 80 | Galium plant response rating ([23]; 31 g ai/ha Postemergence): 70 | Galium plant response rating ([23]; 125 g ai/ha Postemergence): 90 | Horseweed plant response rating ([24]; 31 g ai/ha Postemergence): 60 | Horseweed plant response rating ([24]; 125 g ai/ha Postemergence): 60 | Plant response rating, Barnyardgrass [25]: 95 | Plant response rating, Ducksalad [26]: 75 | Plant response rating, Rice [27]: 20 | Plant response rating, Sedge, Umbrella [28]: 90
